Laboratory results as given in patent US7462625B2, “Gonadotropin-releasing hormone receptor antagonists and methods relating thereto” (Neurocrine Biosciences, Inc., priority 2000, dated 2008).
Where a name gives a salt, the structure may show the parent alone.

Target: T1, GnRH receptor (Homo sapiens, UniProt P30968)
T1 construct: expressed in transfected cells
T1 sequence (P30968 1-328): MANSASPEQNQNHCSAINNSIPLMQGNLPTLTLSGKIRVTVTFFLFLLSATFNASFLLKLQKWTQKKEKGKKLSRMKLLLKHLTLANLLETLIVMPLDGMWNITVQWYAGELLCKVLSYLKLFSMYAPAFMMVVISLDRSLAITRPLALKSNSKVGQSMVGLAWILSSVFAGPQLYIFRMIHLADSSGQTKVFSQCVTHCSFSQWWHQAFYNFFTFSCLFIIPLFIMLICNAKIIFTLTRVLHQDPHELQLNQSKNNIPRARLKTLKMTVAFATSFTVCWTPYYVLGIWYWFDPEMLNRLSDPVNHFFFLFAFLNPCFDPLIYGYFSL
Assay: GnRH receptor membrane binding assay
Settings: GnRH receptor membrane binding assay, [125I]-labeled GnRH peptide; read-out: Ki
Description: Radio-Iodination of GnRH Peptide
The GnRH analog is labeled by the chloramine-T method. […] The reaction is stopped by the addition of 60 μg sodium metabisulfite and the free iodine is removed by passing the iodinated mixture through a C-8 Sep-Pak cartridge (Millipore Corp., Milford, Mass.). The peptide is eluted with a small volume of 80% acetonitrile/water. […] The purified radioactive peptide is stored in 0.1% BSA/20% acetonitrile/0.1% TFA at −80° C. and can be used for up to 4 weeks.
GnRH Receptor Membrane Binding Assay
Cells stably, or transiently, transfected with GnRH receptor expression vectors are harvested, resuspended in 5% sucrose and homogenized using a polytron homogenizer (2×15 sec). Nucleii are removed by centrifugation (3000×g for 5 min.), and the supernatant centrifuged (20,000×g for 30 min, 4° C.) to collect the membrane fraction. The final membrane preparation is resuspended in binding buffer (10 mM Hepes (pH 7.5), 150 mM NaCl, and 0.1% BSA) and stored at −70° C. Binding reactions are performed in a Millipore MultiScreen 96-well filtration plate assembly with polyethylenimine coated GF/C membranes. […] The reaction is terminated after 90 minutes by application of vacuum and washing (2×) with phosphate buffered saline. Bound radioactivity is measured using 96-well scintillation counting (Packard Topcount) or by removing the filters from the plate and direct gamma counting. Ki values are calculated from competition binding data using non-linear least squares regression using the Prism software package (GraphPad Software).

| Ki | Compound |
| --- | --- |
| < 100 nM | COc1cccc(-c2c(C)n(Cc3c(F)cccc3F)c(=O)n(CC(C)NCc3cccs3)c2=O)c1F (stereo not drawn) [9-621] |
| < 100 nM | COc1cccc(-c2c(C)n(Cc3c(F)cccc3F)c(=O)n(CC(C)NCc3cc(Br)cs3)c2=O)c1F (stereo not drawn) [9-622] |
| < 100 nM | COc1ccccc1CNC[C@@H](C)n1c(=O)c(-c2cccc(C)c2F)c(C)n(Cc2c(F)cccc2F)c1=O [9-634] |
| < 100 nM | CCOc1ccccc1CNC[C@@H](C)n1c(=O)c(-c2cccc(C)c2F)c(C)n(Cc2c(F)cccc2F)c1=O [9-636] |
| < 100 nM | COc1cccc(-c2c(C)n(Cc3c(F)cccc3F)c(=O)n(C[C@@H](C)NCc3ccco3)c2=O)c1F [9-652] |
| < 100 nM | COc1cccc(-c2c(C)n(Cc3c(F)cccc3F)c(=O)n([C@H](C)CNCc3ccccc3C)c2=O)c1F [9-653] |
| < 100 nM | COc1cccc(-c2c(C)n(Cc3c(F)cccc3F)c(=O)n(C[C@H](C)NCc3cccn3C)c2=O)c1F [9-664] |
| < 100 nM | CCc1ccc(CN[C@@H](C)Cn2c(=O)c(-c3cccc(OC)c3F)c(C)n(Cc3c(F)cccc3F)c2=O)o1 [9-665] |
| < 100 nM | COc1cccc(-c2c(C)n(Cc3c(F)cccc3F)c(=O)n(C[C@H](C)NCc3ccc(Cl)s3)c2=O)c1F [9-677] |
| < 100 nM | CCC(C)C(C)CN[C@@H](C)Cn1c(=O)c(-c2cccc(OC)c2F)c(C)n(Cc2c(F)cccc2F)c1=O (stereo partly drawn) [9-678] |
| < 100 nM | COc1cccc(-c2c(C)n(Cc3c(F)cccc3F)c(=O)n(C[C@H](C)NCc3ccc(O)cc3)c2=O)c1F [9-680] |
| < 100 nM | CCCN(CCC)[C@@H](C)Cn1c(=O)c(-c2cccc(OC)c2F)c(C)n(Cc2c(F)cccc2F)c1=O [9-681] |
| < 100 nM | CCC(CC(C)C)N[C@@H](C)Cn1c(=O)c(-c2cccc(OC)c2F)c(C)n(Cc2c(F)cccc2F)c1=O (stereo partly drawn) [9-688] |
| < 100 nM | COc1cccc(-c2c(C)n(Cc3c(F)cccc3F)c(=O)n(C[C@H](CC(C)C)N(C)C)c2=O)c1F [9-704] |
| < 100 nM | COc1cccc(-c2c(C)n(Cc3c(F)cccc3F)c(=O)n(C[C@@H](C(C)C)N(C)C)c2=O)c1F [9-711] |
| < 100 nM | COc1cccc(-c2c(C)n(Cc3c(F)cccc3F)c(=O)n(C[C@@H](NC(C)C)C(C)C)c2=O)c1F [9-712] |
| < 100 nM | CCN[C@H](Cn1c(=O)c(-c2cccc(OC)c2F)c(C)n(Cc2c(F)cccc2F)c1=O)C(C)C [9-714] |
| < 100 nM | Cc1c(-c2ccc3c(c2)OCO3)c(=O)n(C[C@H](CO)N(CC2CC2)CC2CC2)c(=O)n1Cc1c(F)cccc1F [9-745] |
| < 100 nM | COc1cccc(-c2c(C)n(Cc3c(F)cccc3F)c(=O)n(CC[C@@H](N)c3ccccc3)c2=O)c1 [9-774] |
| < 100 nM | Cc1c(-c2ccccc2F)c(=O)n(C[C@H](N)c2ccccc2)c(=O)n1Cc1c(F)cccc1F [10-1, 6-Methyl-5-(2-fluorophenyl)-3-[2(R)-amino-2-phenylethyl]-1-(2,6-difluorobenzyl)uracil trifluoroacetic acid salt] |
| < 100 nM | Cc1nc(-c2c(C)n(Cc3c(F)cccc3F)c(=O)n(C[C@H](N)c3ccccc3)c2=O)cs1 [12-1] |
| < 100 nM | Cc1c(-c2csc(-c3ccccc3)n2)c(=O)n(C[C@H](N)c2ccccc2)c(=O)n1Cc1c(F)cccc1F [12-4] |
| < 100 nM | Cc1c(-c2csc(Cc3ccccc3)n2)c(=O)n(C[C@H](N)c2ccccc2)c(=O)n1Cc1c(F)cccc1F [12-5] |
| < 100 nM | COc1ccc(Nc2nc(-c3c(C)n(Cc4c(F)cccc4F)c(=O)n(C[C@H](N)c4ccccc4)c3=O)cs2)cc1 [12-10] |
| < 100 nM | Cc1c(-c2csc(-c3ccc(F)cc3)n2)c(=O)n(C[C@H](N)c2ccccc2)c(=O)n1Cc1c(F)cccc1F [12-24] |
| < 100 nM | COc1ccc(Nc2nc(-c3c(C)n(Cc4c(F)cccc4F)c(=O)n(C[C@H](N)c4ccccc4)c3=O)cs2)cc1OC [12-27] |
| < 100 nM | Cc1ccc(Nc2nc(-c3c(C)n(Cc4c(F)cccc4F)c(=O)n(C[C@H](N)c4ccccc4)c3=O)cs2)cc1 [12-32] |
| < 100 nM | CN[C@H](CC(C)C)Cn1c(=O)c(-c2cccc(OC)c2F)cn(Cc2c(F)cccc2F)c1=O [13-4] |
| < 100 nM | CCc1c(-c2cccc(OC)c2F)c(=O)n(C[C@H](N)c2ccccc2)c(=O)n1Cc1c(F)cccc1F [15-1] |
| < 100 nM | CCc1c(-c2cccc(OC)c2)c(=O)n(C[C@H](N)c2ccccc2)c(=O)n1Cc1c(F)cccc1F [15-2] |
